Results reported in patent publication US20120088737A2, “NOVEL ACYL GUANIDINE DERIVATIVES” (AJINOMOTO CO., INC, priority 2009, published 2012).

Experiments:
human NHE3 [1] = target: T1, human NHE3 (Homo sapiens, UniProt P48764); assay: Measurements of NHE3 inhibitory activities (OK26 cells); type: cell-based; details: OK26 cells (opossum kidney cells overexpressing human NHE3), measurement time 5 minutes at 37° C.; read-out: hNHE3 IC50
T1 construct: expressed in transfected cells; host or cells: OK26 cells (opossum kidney OK cells); OK26 ND sublines with opNHE1 reduced by 90% for A3
T1 sequence (P48764 26-834): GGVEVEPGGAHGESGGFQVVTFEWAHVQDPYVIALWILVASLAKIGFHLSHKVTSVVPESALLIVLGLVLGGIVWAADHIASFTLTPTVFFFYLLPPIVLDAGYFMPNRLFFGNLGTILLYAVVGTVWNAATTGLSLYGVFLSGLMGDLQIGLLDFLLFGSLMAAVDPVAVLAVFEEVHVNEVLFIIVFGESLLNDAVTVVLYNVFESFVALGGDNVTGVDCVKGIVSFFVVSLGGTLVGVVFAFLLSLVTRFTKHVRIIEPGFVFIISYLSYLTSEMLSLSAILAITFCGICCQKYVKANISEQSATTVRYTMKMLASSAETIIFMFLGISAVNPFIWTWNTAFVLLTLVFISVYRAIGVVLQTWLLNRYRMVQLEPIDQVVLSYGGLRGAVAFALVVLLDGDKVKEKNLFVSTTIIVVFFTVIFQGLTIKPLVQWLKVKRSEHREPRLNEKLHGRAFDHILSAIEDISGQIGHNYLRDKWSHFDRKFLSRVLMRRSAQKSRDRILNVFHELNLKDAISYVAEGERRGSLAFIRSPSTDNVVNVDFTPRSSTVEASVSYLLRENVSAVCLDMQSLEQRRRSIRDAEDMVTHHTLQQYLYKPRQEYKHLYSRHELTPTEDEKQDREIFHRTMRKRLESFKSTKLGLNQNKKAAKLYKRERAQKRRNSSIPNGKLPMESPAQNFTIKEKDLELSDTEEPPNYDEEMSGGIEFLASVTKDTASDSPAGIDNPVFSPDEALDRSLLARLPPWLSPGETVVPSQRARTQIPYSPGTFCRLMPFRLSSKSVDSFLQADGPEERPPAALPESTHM
Protocol: (§1) HLF cells (Human hepatoma cell line) were used as cells for the test. After 1×10^4 cells/well were seeded to a 96-well plate and cultured for 3 days, they were cultured overnight under a serum-free medium. Then, the cells were incubated in a stain solution of Tetramethylammonium (TMA) Buffer (130 mM TMA-C1, 5 mM KCl, 2 mM CaCl2, 1 mM MgSO2, 25 mM glucose, 20 mM HEPES; pH 7.4) containing 40 mM NH4Cl and 1 μg/mL pH-sensitive fluorescent indicator BCECF-AM at 37° C. for 40 minutes and then BCECF was introduced into the cells. After the cells were washed once with TMA Buffer and incubated in TMA+40 mM NH4Cl solution at 37° C. for 15 minutes, the solution was removed and 20 μL/well of TMA Buffer and 10 μL/well of each test compound solution prepared with TMA Buffer were added to each well. The measurements were carried out by adding 200 μL/well of Na Buffer (130 mM, NaCl, 5 mM KCl, 2 mM CaCl2, 1 mM MgSO2, 1 mM NaH2PO4, 25 mM glucose, 20 mM HEPES; pH 7.4) or TMA Buffer (for base measurement), immediately placing it on FlexStation (Molecular Device) and then, after 10 minutes, measuring, it the two wavelengths of 505 nm (excitation wavelength)/530 nm (emission wavelength) (measurement value) and 440 nm (excitation wavelength)/530 nm (emission wavelength) (isosbestic point value). A NHE activity was calculated by dividing a measurement value by an isosbestic point value and a NHE1 inhibitory activity was calculated by the following equation. NHE1 inhibitory activity (%)=100×(1−(Measurement value [addition of each compound]−Base [addition of TMA Buffer])/(Control [addition of Na Buffer]−Base [addition of TMA Buffer]))
Pharmacological Test Example 2: Measurements of NHE3 Inhibitory Activities.
OK26 cells (OK (opossum kidney) cells in which human NHE3 genes are overexpressed) were used as cells for the test. The measurements were carried out in the same manner as described in Pharmacological Test Example 1 except that the measurement time was 5 minutes (at 37° C.) to calculate NHE3 inhibitory activities.

[2] = MDCK membrane permeability (trans-well); type: in vitro ADME, Canine; details: dog, apical pH 6.5 / basal pH 7.4, 37° C.
Protocol: Pharmacological Test Example 4: MDCK Membrane Permeability
1×10^6 MDCK (MADIN-DARBY Canine Kidney) cells were seeded to each well and cultivated on a trans-well for 4 days (Mixed medium; DMEM: F12=1:1). The trans-well consists of a upper chamber into which cells are seeded and a lower chamber which is separated by a porous membrane and each test compound added into the upper chamber penetrates through the porous membrane to be detected in the lower chamber. The trans-well system has been used as a model for cell membrane permeability.
Buffer solution (pH 6.5) (138 mM NaCl, 2.7 mM KCl, 25 mM D-Glucose, 20 mM MES, 1.25 mM CaCl2, 0.5 mM MgCl2; pH was adjusted with KOH) was added into the upper chamber (Apical side) while Buffer solution (pH 7.4) (138 mM NaCl, 2.7 mM KCl, 25 mM D-Glucose, 20 mM HEPES, 1.25 mM CaCl2, 0.5 mM MgCl2; pH was adjusted with KOH) was added into the lower chamber (basal side). After it was pre-incubated at 37° C. for 20 minutes, 50 μM of each test compound was added thereto and then reacted at 37° C. for 1 hour. The solutions in the upper and lower chambers were collected and the concentrations of each test compound were determined by LC/MS to calculate membrane permeability values (Pm values) by the following equation. Pm[cm/sec]=(Concentration of each test compound in the basal side×1.5 mL)/(3600 sec×1.12 cm^2×Initial concentration of the added compound)

[3] = system: renal dysfunction model rats; assay: Continuous administration test in renal dysfunction model rats; type: in vivo, Wistar rats
Protocol: Pharmacological Test Example 5: Continuous Administration Test in Renal Dysfunction Model Rats
After unilateral nephrectomy was performed on 7-week-old Wistar rats and the rats were habituated for 1 week, they were divided into 4 groups based on their body weights, Normal group, Vehicle group, 20 mg/kg of the compound of Example 7-administered group and 50 mg/kg of the compound of Example 7-administered group were assigned to 5 rats, respectively. After the rats were habituated in metabolic cages for 4 days, the test compound the compound of Example 7) dissolved in 0.5% methylcellulose solution was administered via gavage simultaneously with intraperitoneal administration of oleic acid-containing bovine serum albumin (OA-BSA) at a dose of 2 g/animal once daily for 4 days. Vehicles (0.5% methylcellulose solution) were administered to Normal group and Vehicle group instead of the test compound (the compound of Example 7). In addition, no oleic acid-containing bovine serum albumin was administered to Normal group and only unilateral nephrectomy was performed on the Normal group rats. Urine samples were collected from each rat on the last administration day to the next day of the last administration, and blood sampling and autopsy were conducted on the same day.

NHE1 = target: T2, NHE1 (Homo sapiens, UniProt P19634); assay: Measurements of NHE1 inhibitory activities (HLF cells, BCECF pH recovery); type: cell-based; details: HLF cells (human hepatoma cell line), measured after 10 minutes; read-out: hNHE1 IC50
T2 construct: HLF cells (Human hepatoma cell line) were used as cells for the test; endogenous in cells; host or cells: HLF cells (human hepatoma cell line)
Protocol: Pharmacological Test Example 1: Measurements of NHE1 Inhibitory Activities
as §1

human NHE3 [4] = target: T1, human NHE3; assay: Improved version of measurements of NHE3 inhibitory activities (OK26 ND cell lines); type: cell-based; details: OK26 ND cell lines (opNHE1 expression reduced by 90%), measurement time 8 minutes at 26° C.; read-out: hNHE3 IC50
Protocol: Pharmacological Test Example 3: Improved Version of Measurements of NHE3 Inhibitory Activities
OK26 cells express endogeneous NHE1 (opNHE1). In order to evaluate NHE3 inhibitory activities more precisely, OK26 ND cell lines in which the expression level of opNHE1 is reduced by 90% were established. Measurements of NEE inhibitory activities were carried out by using the established cell lines in the same manner as described in Pharmacological Test Example 1 except that the measurement time was 8 minutes (at 26° C.) to calculate more precise NHE3 inhibitory activities.

[5] = test compound-administered groups (20 and 50 mg/kg), 4 days, FIG. 2

T2 sequence (P19634 whole entry): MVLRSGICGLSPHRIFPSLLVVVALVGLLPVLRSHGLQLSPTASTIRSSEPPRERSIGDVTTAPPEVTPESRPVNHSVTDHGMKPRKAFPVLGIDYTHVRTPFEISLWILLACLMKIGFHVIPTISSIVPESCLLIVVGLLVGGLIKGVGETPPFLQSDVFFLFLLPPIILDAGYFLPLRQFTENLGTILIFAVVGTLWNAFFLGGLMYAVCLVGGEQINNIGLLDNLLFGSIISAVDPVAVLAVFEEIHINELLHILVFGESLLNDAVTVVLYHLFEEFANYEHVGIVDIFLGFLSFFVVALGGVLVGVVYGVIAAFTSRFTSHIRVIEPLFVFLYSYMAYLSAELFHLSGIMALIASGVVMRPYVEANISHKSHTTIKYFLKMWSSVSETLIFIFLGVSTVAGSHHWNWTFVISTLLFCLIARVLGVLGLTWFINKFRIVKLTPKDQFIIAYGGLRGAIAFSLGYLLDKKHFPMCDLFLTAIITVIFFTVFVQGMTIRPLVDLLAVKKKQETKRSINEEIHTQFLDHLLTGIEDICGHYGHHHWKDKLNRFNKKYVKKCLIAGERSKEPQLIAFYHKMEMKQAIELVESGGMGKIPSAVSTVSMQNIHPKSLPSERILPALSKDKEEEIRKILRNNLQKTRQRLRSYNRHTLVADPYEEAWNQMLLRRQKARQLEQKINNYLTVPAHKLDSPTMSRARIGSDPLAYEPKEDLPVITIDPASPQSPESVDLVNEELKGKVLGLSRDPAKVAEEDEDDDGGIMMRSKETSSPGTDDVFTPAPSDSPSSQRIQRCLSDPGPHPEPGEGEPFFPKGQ

| IC50 (human NHE3 [1]) | Papp A→B at 1 h, 50 μM [2] | IC50 (NHE1) | IC50 (human NHE3 [4]) | Compound | tubular damages (beta 2-microglobulin, marker for tubular damage) ([3]; 20 mg/kg and 50 mg/kg via gavage once daily for 4 days, OA-BSA i.p., unilaterally nephrectomized rats, FIG. 1) | tubular damage scores ([3]; test compound administered groups (20 and 50 mg/kg), 4 days, FIG. 3) | appearances of urinary cast (renal pathological images) [3, 5] | dilation of proximal renal tubules (renal pathological images) [3, 5] |
| --- | --- | --- | --- | --- | --- | --- | --- | --- |
| > 10000 nM | 2 ×10⁻⁶ cm/s |  |  | COC(=O)c1ccc(-c2ccccc2/C=C(\C)C(=O)NC(=N)N)cc1 [Example 7, (E)-2′-(3-guanidino-2-methyl-3-oxo-propenyl)-biphenyl-4-carboxylic acid methyl ester] | Significant improvements in tubular damages | Reductions in tubular damage scores | significant reductions in appearances of urinary cast | improvements in dilation of proximal renal tubules |
| 230 nM |  | 500 nM | 230 nM | C/C(=C\c1ccccc1-c1ccc(O)c(O)c1)C(=O)NC(=N)N [Example 26, N-[(E)-3-(3′,4′-dihydroxy-biphenyl-2-yl)-2-methyl-acryloyl]-guanidine] |  |  |  |  |
| 610 nM | 1 ×10⁻⁶ cm/s | 1200 nM | 360 nM | CC(=O)c1cccc(-c2ccccc2/C=C(\C)C(=O)NC(=N)N)c1 [Example 15, N-[(E)-3-(3′-acetyl-biphenyl-2-yl)-2-methyl-acryloyl]guanidine] |  |  |  |  |
